Data published in PMC4774972, “Activity and Predicted Nephrotoxicity of Synthetic Antibiotics Based on Polymyxin B” (Journal of Medicinal Chemistry, 2016).
Converted amounts (≈) assume the structure as drawn. Like-named read-outs stand apart in the source and are kept apart here. Bridge positions count the residues as written; N and C are the ends. Square brackets hold non-standard residues; d marks the D form. Peptide text beside a SMILES is read from it. * marks the point of attachment. Phe(4-NH2) = Nc1ccc(C[C@H](N)C(=O)O)cc1; Octanoyl = CCCCCCCC(=O)*; Dab = NCC[C@H](N)C(=O)O

Tests used:
K. pneumoniae ATCC 13883 [1] = experiment: microbe, parasite or virus in culture; format: cell-based, Klebsiella pneumoniae; details: MHB, 5 × 10^5 CFU/mL, read visually after 18 h at 37 °C
[2] = tested on: K. pneumoniae CI Koprana 100650661:1, PmxR; experiment: microbe, parasite or virus in culture; format: cell-based, Klebsiella pneumoniae; details: carbapenem & polymyxin resistant clinical isolate, MHB, 5 × 10^5 CFU/mL, 18 h at 37 °C
[3] = tested on: K. pneumoniae CI 138-16357-20362, PmxR; experiment: microbe, parasite or virus in culture; format: cell-based, Klebsiella pneumoniae; details: carbapenem & polymyxin resistant clinical isolate, MHB, 5 × 10^5 CFU/mL, 18 h at 37 °C
[4] = tested on: S. aureus ATCC 25923, MSSA; experiment: microbe, parasite or virus in culture; format: cell-based, Staphylococcus aureus; details: MHB, 5 × 10^5 CFU/mL, read visually after 18 h at 37 °C
E. coli ATCC 25922 [5] = experiment: microbe, parasite or virus in culture; format: cell-based, Escherichia coli; details: MHB, 5 × 10^5 CFU/mL, read visually after 18 h at 37 °C
Method: (§1) Bacteria were either obtained from American Type Culture Collection (ATCC; Manassas, VA, USA) or independent academic clinical isolate collections, as listed in Table S2. Bacteria were cultured in nutrient broth (NB; Bacto Laboratories, catalog no. 234000) or Muller Hinton broth (MHB; Bacto Laboratories, catalog no. 211443) at 37 °C overnight with shaking (∼180 rpm). A sample of each culture was then diluted 50-fold in fresh MHB and incubated at 37 °C for 1.5–3 h with shaking (∼180 rpm). Compound stock solutions were prepared as 0.64 or 2.56 mg/mL in water. The compounds, at twice the final desired concentration, were serially diluted 2-fold across the wells of 96-well plates (Polystyrene, Corning, catalogue No. 3370). Mid log phase bacterial cultures (after 1.5–3 h incubation) were diluted to a final concentration of 5 × 10^5 colony forming units (CFU)/mL, and 50 μL was added to each well giving a final compound concentration range of 32 μg/mL to 0.015 μg/mL (128–0.06 μg/mL for colistin and polymyxin B against the polymyxin resistant clinical isolates). MICs were determined visually after 18 h of incubation at 37 °C, with the MIC defined as the lowest compound concentration at which no bacterial growth was visible.
(§2) Table S2. Bacterial strains used for Minimum Inhibitory Concentration (MIC) […]
(§3) Organism Strain Strain description Strain Source
(§4) Escherichia coli ATCC 25922 FDA strain Seattle 1946 ATCC
(§5) Klebsiella pneumoniae ATCC 13883 Control strain ATCC
(§6) Klebsiella pneumoniae ATCC 700603 Multi-drug resistant ATCC
(§7) Klebsiella pneumoniae BAA-2146 Metallo-beta-lactamase- ATCC
(§8) Acinetobacter baumannii ATCC 19606 Type strain ATCC
(§9) Pseudomonas aeruginosa ATCC 27853 Type strain ATCC
(§10) Pseudomonas aeruginosa FADDI-PA070 Clinical isolate, Nation and Li labs, polymyxin resistant Monash University
(§11) Clinical isolate, Wang Hengzhuang, Pseudomonas aeruginosa PA9704 polymyxin resistant University Hospital of […]
(§12) Ptyela Clinical isolate, Ilias Karaiskos and Acinetobacter baumannii Carbapenem & Helen Giamarellou
(§13) Clinical isolate, Medicine, Hygeia
(§14) Klebsiella pneumoniae Koprana Carbapenem, & General Hospital, […]
(§15) Clinical isolate, (Instituto Dante […]
(§16) polymyxin resistant Cardiologia, São […]

HepG2 cells = experiment: Cytotoxicity assay (resazurin assay); format: cell-based, human; details: 4000 cells/well, 24 h incubation with compound, fluorescence 560/590
HEK293 cells = experiment: Cytotoxicity assay (resazurin assay); format: cell-based, human; details: 4000 cells/well, 24 h incubation with compound, fluorescence 560/590
[6] = tested on: P. aeruginosa FADDI-PA070, PmxR; format: cell-based, Pseudomonas aeruginosa; details: polymyxin resistant clinical isolate; MHB, 5 × 10^5 CFU/mL, 18 h at 37 °C
Method: as §1, §2, §3, §4, §5, §6, §7, §8, §9, §10, §11, §12, §13, §14, §15, §16

[7] = tested on: P. aeruginosa PA9704, PmxR; format: cell-based, Pseudomonas aeruginosa; details: polymyxin resistant clinical isolate; MHB, 5 × 10^5 CFU/mL, 18 h at 37 °C
Method: as §1, §2, §3, §4, §5, §6, §7, §8, §9, §10, §11, §12, §13, §14, §15, §16

[8] = tested on: primary human renal proximal tubule epithelial (hPT) cells; experiment: Nephrotoxicity assay, LDH release; format: cell-based; details: primary human kidney cells
Description: (§17) Primary human renal proximal tubule epithelial (hPT) cells were isolated and used for in vitro prediction of drug-induced nephrotoxicity[63],[64],[69] by measuring the release of metabolism enzymes, LDH and GGT, as previously described.[70]

[9] = tested on: K. pneumoniae ATTC BAA-2146, NDM-1 pos; format: cell-based, Klebsiella pneumoniae; details: MHB, 5 × 10^5 CFU/mL, read visually after 18 h at 37 °C
Method: as §1, §2, §3, §4, §5, §6, §7, §8, §9, §10, §11, §12, §13, §14, §15, §16

[10] = tested on: K. pneumoniae ATCC 700603, MDR; format: cell-based, Klebsiella pneumoniae; details: MHB, 5 × 10^5 CFU/mL, read visually after 18 h at 37 °C
Method: as §1, §2, §3, §4, §5, §6, §7, §8, §9, §10, §11, §12, §13, §14, §15, §16

A. baumannii ATCC 19606 [11] = format: cell-based, Acinetobacter baumannii; details: MHB, 5 × 10^5 CFU/mL, read visually after 18 h at 37 °C
Method: as §1, §2, §3, §4, §5, §6, §7, §8, §9, §10, §11, §12, §13, §14, §15, §16

[12] = tested on: A. baumannii CI Ptyela 100734512:2, PmxR; experiment: microbe, parasite or virus in culture; format: cell-based, Acinetobacter baumannii; details: carbapenem & polymyxin resistant clinical isolate, MHB, 5 × 10^5 CFU/mL, 18 h at 37 °C
[13] = tested on: primary human renal proximal tubule epithelial (hPT) cells; experiment: Nephrotoxicity assay, GGT release; format: cell-based; details: primary human kidney cells
Description: as §17

P. aeruginosa ATCC 27853 [14] = experiment: microbe, parasite or virus in culture; format: cell-based, Pseudomonas aeruginosa; details: MHB, 5 × 10^5 CFU/mL, read visually after 18 h at 37 °C
Method: as §1, §2, §3, §4, §5, §6, §7, §8, §9, §10, §11, §12, §13, §14, §15, §16

HepG2 = details: CC50 HepG2 (µM)
[15] = tested on: P. aeruginosa FADDI-PA070, PmxR; details: MIC P. aeruginosa FADDI-PA070, PmxR (µg/mL)
A. baumannii ATCC 19606 [16] = details: MIC A. baumannii ATCC 19606 (µg/mL)
K. pneumoniae ATCC 13883 [17] = details: MIC K. pneumoniae ATCC 13883 (µg/mL)
E. coli ATCC 25922 [18] = details: MIC E. coli ATCC 25922 (µg/mL)
[19] = tested on: S. aureus ATCC 25923, MSSA; details: MIC S. aureus ATCC 25923, MSSA (µg/mL)
[20] = tested on: K. pneumoniae ATTC BAA-2146, NDM-1 pos; details: MIC K. pneumoniae ATTC BAA-2146, NDM-1 pos (µg/mL)
[21] = tested on: P. aeruginosa PA9704, PmxR; details: MIC P. aeruginosa PA9704, PmxR (µg/mL)
[22] = tested on: K. pneumoniae CI Koprana 100650661:1, PmxR; details: MIC K. pneumoniae CI Koprana 100650661:1, PmxR (µg/mL)
[23] = tested on: K. pneumoniae ATCC 700603, MDR; details: MIC K. pneumoniae ATCC 700603, MDR(µg/mL)
P. aeruginosa ATCC 27853 [24] = details: MIC P. aeruginosa ATCC 27853 (µg/mL)
[25] = tested on: K. pneumoniae CI 138-16357-20362, PmxR; details: MIC K. pneumoniae CI 138-16357-20362, PmxR (µg/mL)
[26] = tested on: A. baumannii CI Ptyela 100734512:2, PmxR; details: MIC A. baumannii CI Ptyela 100734512:2, PmxR (µg/mL)

Compound | MIC K. pneumoniae ATCC 13883 (K. pneumoniae ATCC 13883 [1]) [µg/mL] | MIC K. pneumoniae CI Koprana 100650661:1, PmxR [2] [µg/mL] | MIC K. pneumoniae CI 138-16357-20362, PmxR [3] [µg/mL] | MIC S. aureus ATCC 25923, MSSA [4] [µg/mL] | HepG2 - CC50 (HepG2 cells) [µM] | HEK293 CC50 (HEK293 cells) [µM] | MIC P. aeruginosa FADDI-PA070, PmxR [6] [µg/mL] | MIC P. aeruginosa PA9704, PmxR [7] [µg/mL] | LDH release CC50 [8] [µg/mL] | MIC K. pneumoniae ATTC BAA-2146, NDM-1 pos [9] [µg/mL] | MIC K. pneumoniae ATCC 700603, MDR [10] [µg/mL] | MIC A. baumannii ATCC 19606 (A. baumannii ATCC 19606 [11]) [µg/mL] | MIC A. baumannii CI Ptyela 100734512:2, PmxR [12] [µg/mL] | GGT release CC50 [13] [µg/mL] | MIC P. aeruginosa ATCC 27853 (P. aeruginosa ATCC 27853 [14]) [µg/mL] | also measured
6Me-C7CO/ 6Me-C6CO Dab Thr Dab Dab Dab D-Leu Leu Dab Dab (lariat or depsi) [Colistin 2, polymyxin E (colistin), macrocyclic lipodecapeptide antibiotic, D-Leu at position-6, reference compound] | 0.25 | >128 | 64 | >128 | >300 | >300 | >32 | 128 | 25 | 0.25 | 0.25 | 0.25 | >64 | 48 | 0.5 | MIC E. coli ATCC 25922 (E. coli ATCC 25922 [5]): 0.25 µg/mL
CCCCCCCC(=O)N[C@@H](CCN)C(=O)N[C@H](C(=O)N[C@@H](CCN)C(=O)N[C@H]1CCNC(=O)[C@H]([C@@H](C)O)NC(=O)[C@H](CCN)NC(=O)[C@H](CCN)NC(=O)[C@H](CC(C)C)NC(=O)[C@@H](Cc2ccccc2)NC(=O)[C@H](Cc2ccc(N)cc2)NC1=O)[C@@H](C)O [Compound 34] (Octanoyl-[Dab]T[Dab][Dab][Phe(4-NH2)][dF]L[Dab][Dab]T; lactam 4-C) |  | >32 | >32 |  |  |  |  |  |  | >32 |  |  |  |  |  | CC50 (HepG2): > 300 µM; MIC [15]: > 32 µg/mL; MIC (A. baumannii ATCC 19606 [16]): > 32 µg/mL; MIC (K. pneumoniae ATCC 13883 [17]): > 32 µg/mL; MIC (E. coli ATCC 25922 [18]): > 32 µg/mL; MIC [19]: > 32 µg/mL; MIC [20]: > 32 µg/mL; MIC [21]: > 32 µg/mL; MIC [22]: > 32 µg/mL; MIC [23]: > 32 µg/mL; MIC (P. aeruginosa ATCC 27853 [24]): > 32 µg/mL; MIC [25]: > 32 µg/mL; MIC [26]: > 32 µg/mL
CNC(C)C1CCC(N)C(OC2C(N)CC(N)C(OC3OCC(C)(O)C(NC)C3O)C2O)O1 (stereo not drawn) [Gentamicin, reference compound] |  |  |  |  | >300 | >300 |  |  | 33 |  |  |  |  | 33 |  | MIC (K. pneumoniae ATCC 13883 [1]; Klebsiella pneumoniae, ATCC13883): 0.25 µg/mL (≈ 0.523 µM); MIC ([2]; Klebsiella pneumoniae): > 32 µg/mL; MIC ([3]; Klebsiella pneumoniae): 1 µg/mL (≈ 2.09 µM); MIC (E. coli ATCC 25922 [5]; Escherichia coli, ATCC25922, 18 h): 0.25 µg/mL (≈ 0.523 µM); MIC ([12]; Acinetobacter baumannii): > 32 µg/mL; MIC (P. aeruginosa ATCC 27853 [14]; Pseudomonas aeruginosa, ATCC27853): 1 µg/mL (≈ 2.09 µM)
CC[C@H](C)CCCCC(=O)N[C@@H](CCN)C(=O)N[C@H](C(=O)N[C@@H](CCN)C(=O)N[C@H]1CCNC(=O)[C@H]([C@@H](C)O)NC(=O)[C@H](CCN)NC(=O)[C@H](CCN)NC(=O)[C@H](CC(C)C)NC(=O)[C@@H](Cc2ccccc2)NC(=O)[C@H](CCN)NC1=O)[C@@H](C)O [Polymyxin B 1, polymyxin B] | 1 (≈ 0.831 µM) | 64 (≈ 53.2 µM) | 64 (≈ 53.2 µM) | >64 | >300 | >300 | 32 (≈ 26.6 µM) | 128 (≈ 106 µM) | 23 | 0.25 (≈ 0.208 µM) | 0.5 (≈ 0.415 µM) | 0.25 (≈ 0.208 µM) | 64 (≈ 53.2 µM) | 177 | 0.5 (≈ 0.415 µM) | 
